Results: US12252701B2, “Chimeric antigen receptor T cell therapy” (KITE PHARMA, INC., priority 2020, dated 2025)

What was measured:
JAK2 = JAK2 (Homo sapiens, UniProt O60674); assay: JAK kinase inhibition biochemical assay (Kinase-Glo Plus luminescence), JAK2; conditions: 10 μM ATP
Procedure: (§1) JAK kinase inhibition in vitro biochemical assays were performed using Kinase-Glo Plus luminescence kinase assay kit (Promega). Kinase activity was measured by quantitating the amount of ATP remaining in solution following a kinase reaction. Luminescent signal from the assay was correlated with the amount of ATP present and was inversely correlated with the amount of kinase activity. Compounds were diluted in 10% DMSO and 5 μl of the dilution were added to a 50 μl reaction so that the final concentration of DMSO was 1% in all of the reactions. […] All enzymatic reactions were conducted at 30° C. for 45 minutes. […] After the enzymatic reaction, 50 μl of Kinase-Glo Plus Luminescence kinase assay solution (Promega) were added to each reaction and incubated in the plate for 15 minutes at room temperature. Luminescence signal was measured using a Bio-Tek Synergy 2 microplate reader. Kinase activity was performed in duplicate at each concentration and data were analyzed using Graphpad Prism. The difference between luminescence intensities in the absence of Kinase (Lut) and in the presence of Kinase (Luc) was defined as 100% activity (Lut−Luc). Using luminescence signal (Lu) in the presence of the compound, % activity was calculated as: % activity={Lut−Lu)/(Lut−Luc)}×100%, where Lu=the luminescence intensity in the presence of compound.

[1] = system: NALM6.GFP.LUC.CD19 target cells
Procedure: The percent cytotoxicity to NALM6.GFP.LUC.CD19 target cells was measured by luciferase detection at each round.
In one embodiment, a serial killing assay is a combination of cell killing and how long it takes for CAR T cells to get exhausted under repeated stimulation. In one embodiment, a serial killing assay is a surrogate measure for CAR T cell persistence in vivo.

JAK3 = molecular target: T1, JAK3 (Homo sapiens, UniProt P52333); assay: JAK kinase inhibition biochemical assay (Kinase-Glo Plus luminescence), JAK3
T1 sequence (P52333 1-1124): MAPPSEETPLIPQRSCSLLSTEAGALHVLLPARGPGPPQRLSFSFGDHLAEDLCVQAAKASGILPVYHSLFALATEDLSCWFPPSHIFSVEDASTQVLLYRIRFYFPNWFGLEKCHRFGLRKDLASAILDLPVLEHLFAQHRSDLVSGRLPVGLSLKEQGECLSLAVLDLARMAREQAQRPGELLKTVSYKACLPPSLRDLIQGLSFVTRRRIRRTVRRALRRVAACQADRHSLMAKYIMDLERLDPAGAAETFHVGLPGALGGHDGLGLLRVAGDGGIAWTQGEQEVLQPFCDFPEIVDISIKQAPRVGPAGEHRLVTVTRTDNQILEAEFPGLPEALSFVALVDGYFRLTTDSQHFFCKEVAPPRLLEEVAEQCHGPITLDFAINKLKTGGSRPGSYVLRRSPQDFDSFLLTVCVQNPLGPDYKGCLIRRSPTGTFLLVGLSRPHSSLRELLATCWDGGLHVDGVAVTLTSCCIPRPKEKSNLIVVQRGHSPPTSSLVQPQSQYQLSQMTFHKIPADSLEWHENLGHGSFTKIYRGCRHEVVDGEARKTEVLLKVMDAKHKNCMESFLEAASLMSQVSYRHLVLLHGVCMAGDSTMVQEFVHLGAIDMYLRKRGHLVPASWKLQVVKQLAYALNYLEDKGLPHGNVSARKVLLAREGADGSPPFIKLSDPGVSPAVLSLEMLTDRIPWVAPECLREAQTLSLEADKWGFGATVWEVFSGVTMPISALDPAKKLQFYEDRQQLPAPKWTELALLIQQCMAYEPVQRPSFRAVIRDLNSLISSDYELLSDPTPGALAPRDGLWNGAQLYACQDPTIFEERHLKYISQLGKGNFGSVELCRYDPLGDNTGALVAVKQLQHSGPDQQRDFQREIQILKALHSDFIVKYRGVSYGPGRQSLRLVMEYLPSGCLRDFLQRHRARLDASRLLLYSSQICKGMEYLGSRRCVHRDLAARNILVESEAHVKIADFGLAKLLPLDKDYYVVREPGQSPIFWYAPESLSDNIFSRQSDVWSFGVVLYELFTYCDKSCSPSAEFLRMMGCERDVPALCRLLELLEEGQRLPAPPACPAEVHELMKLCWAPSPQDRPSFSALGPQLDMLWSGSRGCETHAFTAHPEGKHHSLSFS
Procedure: as §1

[2] = system: monocyte-derived macrophages; assay: Macrophage differentiation and M1/M2 polarization (surface markers by flow cytometry); format: cell-based, human; conditions: for CD209 surface expression in M2 polarized macrophage cultures: compared to normal M2 polarization culture conditions; for skewing of macrophage phenotype amidst M2 polarizing conditions (M1 markers CD38 and HLA-DR): separate experiment
Procedure: Monocytes were prepared from healthy donor PBMCs by negative selection for CD14+ monocytes using MACS (these cryopreserved monocytes provided by […], Alameda, CA) at >95% purity. Monocytes were differentiated into macrophages (M0) using traditional methods. In brief, 1×10^6 monocytes were plated into 12-well plate wells in a total volume of 2 mL macrophage culture media (MCM) (ImmunoCult™-SF Macrophage medium, Stem Cell Technologies) containing 50 ng/ml M-CSF and cultured for 6 days at 37° C./5% CO2. On day 2 of differentiation, cultures were replenished with fresh media and M-CSF. On day 6, a portion of the wells containing differentiated macrophages were replenished with 2 ml of fresh MCM containing 50 ng/ml M-CSF, 100 ng/ml LPS, 20 ng/ml IFNg and cultured for another 48 hours to polarize the macrophage to an M1 macrophage phenotype. Also on day 6, another portion of the wells containing differentiated macrophages were replenished with 2 ml of fresh R10 containing 50 ng/ml M-CSF and 20 ng/ml IL-4 and cultured for another 48 hours to polarize the macrophages to M2 macrophage phenotype. On day 8, all putative polarized macrophages were assessed for M1 and M2-specific surface markers using relevant M1/M2 immunophenotyping panels and flow cytometry. The cell surface markers used to assess monocytes, M0, M1 and M2 macrophage phenotypes included CD14, CD32, CD38, CD80, CD86, CD68, CD163, CD200R1, CD204, CD206, CD209, and HLA-DR.

macrophage = assay: Macrophage polarization, M1/M2 phenotypic markers by flow cytometry; format: cell-based

Sequence of JAK2 (O60674 whole entry): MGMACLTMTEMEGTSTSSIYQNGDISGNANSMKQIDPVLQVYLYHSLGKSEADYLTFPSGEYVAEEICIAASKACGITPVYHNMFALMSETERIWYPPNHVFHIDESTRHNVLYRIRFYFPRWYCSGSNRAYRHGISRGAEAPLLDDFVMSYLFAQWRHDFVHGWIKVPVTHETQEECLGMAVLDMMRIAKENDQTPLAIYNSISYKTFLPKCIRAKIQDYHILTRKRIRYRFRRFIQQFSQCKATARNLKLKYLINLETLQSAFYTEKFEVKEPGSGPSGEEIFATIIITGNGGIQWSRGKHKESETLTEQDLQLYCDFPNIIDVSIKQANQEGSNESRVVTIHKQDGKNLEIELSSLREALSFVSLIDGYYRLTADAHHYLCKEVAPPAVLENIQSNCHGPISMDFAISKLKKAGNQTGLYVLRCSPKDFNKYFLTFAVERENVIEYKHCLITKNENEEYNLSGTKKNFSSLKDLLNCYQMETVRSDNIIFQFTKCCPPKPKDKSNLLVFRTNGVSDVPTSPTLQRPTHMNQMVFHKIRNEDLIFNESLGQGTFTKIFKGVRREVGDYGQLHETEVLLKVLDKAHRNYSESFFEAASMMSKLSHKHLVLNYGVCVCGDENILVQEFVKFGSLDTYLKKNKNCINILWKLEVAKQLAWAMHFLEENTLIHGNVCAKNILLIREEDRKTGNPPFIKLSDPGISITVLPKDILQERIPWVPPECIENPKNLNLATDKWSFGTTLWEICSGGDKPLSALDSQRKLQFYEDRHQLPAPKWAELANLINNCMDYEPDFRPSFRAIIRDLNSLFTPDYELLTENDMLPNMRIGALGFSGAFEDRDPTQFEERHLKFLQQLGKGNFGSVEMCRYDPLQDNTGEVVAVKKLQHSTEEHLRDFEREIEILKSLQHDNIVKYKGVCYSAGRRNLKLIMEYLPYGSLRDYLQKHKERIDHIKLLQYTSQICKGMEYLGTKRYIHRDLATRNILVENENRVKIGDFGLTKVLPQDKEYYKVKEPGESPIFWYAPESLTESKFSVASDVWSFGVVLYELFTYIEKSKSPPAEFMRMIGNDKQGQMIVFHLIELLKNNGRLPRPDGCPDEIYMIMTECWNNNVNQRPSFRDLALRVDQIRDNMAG

SMILES: Nc1nc2cccc(-c3ccc(CN4CCS(=O)(=O)CC4)cc3)n2n1 [GS-829845]
- IC50 (JAK2): 2160 nM

SMILES: C[C@@H]1C[C@H]2[C@@H]3CCC4=CC(=O)C=C[C@]4(C)[C@@]3(F)[C@@H](O)C[C@]2(C)[C@@]1(O)C(=O)CO [dexamethasone]
- impact on CAR-T serial killing (percent cytotoxicity) [1]: differential impacts

SMILES: O=C(Nc1nc2cccc(-c3ccc(CN4CCS(=O)(=O)CC4)cc3)n2n1)C1CC1 [filgotinib]
- activity against JAK3 (JAK3; biochemical assay): limited activity
- inhibition of an M2 polarized phenotype ([2]; 10 μM, compared to no drug/normal M2 polarization culture conditions): stronger inhibition of an M2 polarized phenotype than Tofacitinib
- CD209 surface expression in M2 polarized macrophage cultures ([2]; 10 μM): No reduction
- influence on inhibiting M2 polarization by period of use ([2]; 10 μM, during 6-day differentiation versus only during M2 polarization): stronger influence on inhibiting M2 polarization when used during the 6-day macrophage differentiation
- inhibiting the formation of an M2 polarized phenotype ([2]; 10 μM, used during both macrophage differentiation and M2 polarization): even stronger
- skewing of macrophage phenotype amidst M2 polarizing conditions (M1 markers CD38 and HLA-DR) [2]: skewed macrophages away from M2 towards M1 phenotype
- macrophage polarization (macrophage): promotes polarization of macrophages from M2 to M1 macrophages

SMILES: N#CCC1(n2cc(-c3ncnc4[nH]ccc34)cn2)CN(C2CCN(C(=O)c3ccnc(C(F)(F)F)c3F)CC2)C1 [itacitinib]
- IC50 (JAK2): 69 nM
- IC50 (JAK3; 10 μM ATP): 921 nM

SMILES: C[C@@H]1CCN(C(=O)CC#N)C[C@@H]1N(C)c1ncnc2[nH]ccc12 [tofacitinib]
- CD209 surface expression in M2 polarized macrophage cultures ([2]; 10 μM): No reduction
- skewing of macrophage phenotype amidst M2 polarizing conditions (M1 markers CD38 and HLA-DR) [2]: skewed macrophages away from M2 towards M1 phenotype
